Results as given in US20140256690A1, “CONTRACEPTIVE METHOD” (AGILE THERAPEUTICS, INC., priority 2013, published 2014).

Test: Saturation solubilities of enhancers in PSAs
Format: physicochemical
[1] = in Duro-Tak 87-4098 (polyacrylate PSA)

For `CCCCCCCCCCCCOC(=O)C(C)O` (stereo not shown) [Lauryl Lactate, lauryl lactate], the “Saturation Solubilities” value [1] was 1000 mg/g and the “Saturation Solubilities” value (in PIB PSA) was 785 mg/g.

In the case of `C[S+](C)[O-]` [DMSO, dimethyl sulfoxide], the “Saturation Solubilities” value [1] is reported as 8 mg/g and the “Saturation Solubilities” value (in PIB PSA) is reported as 0.01 mg/g.
